Assay results taken from ChEMBL document CHEMBL1201862, “PubChem BioAssay data set” (2004).
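Tested at 5 concentrations; 48 h exposure; 96-well plates; endpoints linearly interpolated, else capped at highest concentration. Here, GI50 denotes the concentration required for 50% inhibition of growth.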 Calls of active or inactive are those of the source. Cut-off read from the data, not from the text of the source: active = GI50 up to about 1.1 µM and inactive = higher.

How the values were obtained:
Experiment in all cases: DTP human tumour cell line panel, 48 h
NCI-H226 = tested on: NCI-H226
EKVX = tested on: EKVX
IGROV-1 = tested on: IGROV-1
NCI/ADR-RES = tested on: NCI/ADR-RES
DU-145 = tested on: DU-145
BT-549 = tested on: BT-549
LOX IMVI = tested on: LOX IMVI
NCI-H522 = tested on: NCI-H522
NCI-H460 = tested on: NCI-H460
SK-MEL-5 = tested on: SK-MEL-5
A549 = tested on: A549
OVCAR-4 = tested on: OVCAR-4
SW-620 = tested on: SW-620
SK-MEL-28 = tested on: SK-MEL-28
OVCAR-3 = tested on: OVCAR-3
OVCAR-8 = tested on: OVCAR-8
K562 = tested on: K562
RXF 393 = tested on: RXF 393
Malme-3M = tested on: Malme-3M
UO-31 = tested on: UO-31

| SMILES | GI50 (NCI-H226) | GI50 (EKVX) | GI50 (IGROV-1) | GI50 (NCI/ADR-RES) | GI50 (DU-145) | GI50 (BT-549) | GI50 (LOX IMVI) | GI50 (NCI-H522) | GI50 (NCI-H460) | GI50 (SK-MEL-5) | GI50 (A549) | GI50 (OVCAR-4) | GI50 (SW-620) | GI50 (SK-MEL-28) | GI50 (OVCAR-3) | GI50 (OVCAR-8) | GI50 (K562) | GI50 (RXF 393) | GI50 (Malme-3M) | GI50 (UO-31) |
| --- | --- | --- | --- | --- | --- | --- | --- | --- | --- | --- | --- | --- | --- | --- | --- | --- | --- | --- | --- | --- |
| O=C1NC(=O)C(F)(n2cc(F)c(=O)[nH]c2=O)C(O)N1 (stereo not given) | > 10 µM (inactive) | > 10 µM (inactive) | > 10 µM (inactive) | > 10 µM (inactive) | > 10 µM (inactive) | > 10 µM (inactive) | > 10 µM (inactive) | > 10 µM (inactive) | > 10 µM (inactive) | > 10 µM (inactive) | > 10 µM (inactive) | > 10 µM (inactive) | > 10 µM (inactive) | > 10 µM (inactive) | > 10 µM (inactive) | > 10 µM (inactive) | > 10 µM (inactive) | > 10 µM (inactive) | > 10 µM (inactive) | > 10 µM (inactive) |
| C[N+](C)(C)CC1CCCC(C[N+](C)(C)C)C1=O (stereo not given) | 15.6 µM (inactive) | 1.58 µM (inactive) | 5.24 µM (inactive) | 2.59 µM (inactive) | 5.75 µM (inactive) | 1.58 µM (inactive) | 1.23 µM (inactive) | 0.447 µM (active) | 16.3 µM (inactive) | 5.16 µM (inactive) | 14.8 µM (inactive) | 0.641 µM (active) | 0.0726 µM (active) | 1.85 µM (inactive) | 0.703 µM (active) | 0.869 µM (active) | 0.0724 µM (active) | 1.69 µM (inactive) | 0.212 µM (active) | 1.67 µM (inactive) |
| CC(C)(C)OC(=O)NCCCNC1(c2cc3ccccc3s2)CCCCC1 | 29 µM (inactive) | 14 µM (inactive) | 16.7 µM (inactive) | 15.2 µM (inactive) | 16.9 µM (inactive) | 13.6 µM (inactive) | 16.8 µM (inactive) | 14.2 µM (inactive) | 14.3 µM (inactive) | 13.9 µM (inactive) | 12.6 µM (inactive) | 15.2 µM (inactive) | 15.5 µM (inactive) | 14.9 µM (inactive) | 13.8 µM (inactive) | 17.2 µM (inactive) | 10.5 µM (inactive) | 14.8 µM (inactive) | 15.9 µM (inactive) | 12.6 µM (inactive) |
| COC(=O)c1c(C)cccc1C1CN=NC12Cc1cc(C)cc(C)c1C2=O (stereo not given) | 58.5 µM (inactive) | 39.2 µM (inactive) | 57.7 µM (inactive) | 25.2 µM (inactive) | 84.7 µM (inactive) | 29.7 µM (inactive) | 17 µM (inactive) | 9.46 µM (inactive) | 32.1 µM (inactive) | 19.2 µM (inactive) | 37.1 µM (inactive) | 29.2 µM (inactive) | 48.5 µM (inactive) | 76.4 µM (inactive) | 28.9 µM (inactive) | 54.1 µM (inactive) | 30.2 µM (inactive) | 34 µM (inactive) | 26.2 µM (inactive) | 28.4 µM (inactive) |
| COC1/C=C\C=C(/C)C(=O)NC2=CC(=O)C(NCCCl)=C(CC(C)CC(OC)C(O)C(C)/C=C(/C)C1OC(N)=O)C2=O (stereo not given) | 0.729 µM (active) | 0.592 µM (active) | 0.499 µM (active) | 10.6 µM (inactive) | 0.569 µM (active) | 1.25 µM (inactive) | 0.0857 µM (active) | 0.0219 µM (active) | 0.0991 µM (active) | 0.34 µM (active) | 0.53 µM (active) | 2.54 µM (inactive) | 0.0161 µM (active) | 0.0373 µM (active) | 0.0853 µM (active) | 0.115 µM (active) | 0.0236 µM (active) | 0.0174 µM (active) | 0.0345 µM (active) | 0.728 µM (active) |
| COCOc1cc(OC)ccc1C=O | 40.8 µM (inactive) | 52.1 µM (inactive) | 33.1 µM (inactive) | 17.3 µM (inactive) | 53.3 µM (inactive) | 58.1 µM (inactive) | 53 µM (inactive) | 27.6 µM (inactive) | 38.5 µM (inactive) | 27.4 µM (inactive) | > 100 µM (inactive) | 78 µM (inactive) | 32.8 µM (inactive) | > 100 µM (inactive) | 20.9 µM (inactive) | 41.3 µM (inactive) | 23.9 µM (inactive) | 14.7 µM (inactive) | 11.6 µM (inactive) | 64 µM (inactive) |
| N#C[C@H](c1nc2ccccc2[nH]1)c1nc2ccccc2nc1Cl | 22.1 µM (inactive) | 9.68 µM (inactive) | 11.2 µM (inactive) | 29.8 µM (inactive) | 1.78 µM (inactive) | > 28.2 µM (inactive) | 3 µM (inactive) | 2.85 µM (inactive) | > 25.1 µM (inactive) | 5.98 µM (inactive) | > 54.5 µM (inactive) | > 35.2 µM (inactive) | 6.08 µM (inactive) | 20.2 µM (inactive) | > 100 µM (inactive) | 12.6 µM (inactive) | 4.2 µM (inactive) | > 100 µM (inactive) | 12.4 µM (inactive) | > 47 µM (inactive) |
